Data on 50 molecules can be found in patent publication US9181273B2, “Morpholine-spirocyclic piperidine amides as modulators of ion channels” (Vertex Pharmaceuticals Incorporated, priority 2011, dated 2015).

The structures appear in SMILES notation.

human NaV subtype, like NaV 1.7, sequence (Q15858 whole entry): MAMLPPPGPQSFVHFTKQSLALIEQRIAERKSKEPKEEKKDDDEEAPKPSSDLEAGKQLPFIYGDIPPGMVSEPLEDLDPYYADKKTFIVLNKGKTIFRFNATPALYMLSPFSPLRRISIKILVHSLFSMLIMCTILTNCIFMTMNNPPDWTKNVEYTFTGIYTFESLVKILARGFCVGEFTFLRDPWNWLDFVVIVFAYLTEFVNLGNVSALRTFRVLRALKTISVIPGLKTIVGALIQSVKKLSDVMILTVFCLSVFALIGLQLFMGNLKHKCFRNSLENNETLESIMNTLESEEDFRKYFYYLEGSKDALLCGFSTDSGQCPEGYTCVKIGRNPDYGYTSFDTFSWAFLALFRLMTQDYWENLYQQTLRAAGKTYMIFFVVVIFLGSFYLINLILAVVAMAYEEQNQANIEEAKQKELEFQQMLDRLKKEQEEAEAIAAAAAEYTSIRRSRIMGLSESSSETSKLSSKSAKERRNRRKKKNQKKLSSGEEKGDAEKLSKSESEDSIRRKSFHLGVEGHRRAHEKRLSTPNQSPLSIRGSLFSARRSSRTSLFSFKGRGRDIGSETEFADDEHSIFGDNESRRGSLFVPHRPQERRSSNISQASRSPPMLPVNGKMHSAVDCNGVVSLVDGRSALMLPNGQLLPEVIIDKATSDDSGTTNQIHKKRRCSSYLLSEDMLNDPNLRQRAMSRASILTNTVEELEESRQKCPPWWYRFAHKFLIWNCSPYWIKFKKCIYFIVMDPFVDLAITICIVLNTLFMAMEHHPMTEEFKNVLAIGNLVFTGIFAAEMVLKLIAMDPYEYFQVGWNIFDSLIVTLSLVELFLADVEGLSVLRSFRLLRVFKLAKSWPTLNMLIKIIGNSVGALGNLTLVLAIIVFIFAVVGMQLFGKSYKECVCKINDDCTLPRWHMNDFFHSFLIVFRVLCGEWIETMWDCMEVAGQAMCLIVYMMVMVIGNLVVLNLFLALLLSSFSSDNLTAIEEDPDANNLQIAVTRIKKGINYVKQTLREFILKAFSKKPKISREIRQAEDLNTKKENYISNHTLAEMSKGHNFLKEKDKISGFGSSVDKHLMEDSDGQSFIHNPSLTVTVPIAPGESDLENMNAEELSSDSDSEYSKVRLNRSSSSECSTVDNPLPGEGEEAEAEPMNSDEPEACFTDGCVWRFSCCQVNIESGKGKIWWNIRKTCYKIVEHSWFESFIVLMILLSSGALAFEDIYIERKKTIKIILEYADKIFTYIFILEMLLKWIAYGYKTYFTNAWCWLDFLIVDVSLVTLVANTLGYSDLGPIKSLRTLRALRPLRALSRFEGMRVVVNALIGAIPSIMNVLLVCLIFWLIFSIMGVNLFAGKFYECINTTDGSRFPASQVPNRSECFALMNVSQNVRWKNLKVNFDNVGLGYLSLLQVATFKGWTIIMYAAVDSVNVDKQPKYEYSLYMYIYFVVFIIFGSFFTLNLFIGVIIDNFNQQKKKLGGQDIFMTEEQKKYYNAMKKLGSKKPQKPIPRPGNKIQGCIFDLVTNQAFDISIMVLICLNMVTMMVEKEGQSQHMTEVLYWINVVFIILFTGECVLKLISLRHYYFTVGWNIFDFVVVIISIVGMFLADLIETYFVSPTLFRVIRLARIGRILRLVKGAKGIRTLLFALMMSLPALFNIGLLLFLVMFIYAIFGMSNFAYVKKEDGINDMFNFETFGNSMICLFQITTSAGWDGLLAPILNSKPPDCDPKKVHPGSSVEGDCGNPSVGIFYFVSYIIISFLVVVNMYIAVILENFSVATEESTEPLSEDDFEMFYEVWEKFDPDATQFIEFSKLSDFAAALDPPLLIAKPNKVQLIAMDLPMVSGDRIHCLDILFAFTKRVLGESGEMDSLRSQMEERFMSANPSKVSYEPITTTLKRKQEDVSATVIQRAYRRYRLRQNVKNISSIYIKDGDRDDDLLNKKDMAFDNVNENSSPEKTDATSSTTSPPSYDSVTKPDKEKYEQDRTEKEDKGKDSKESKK

The target of this assay is human NaV subtype, like NaV 1.7 (Homo sapiens, UniProt Q15858). Nature of the assay: E-VIPR optical membrane potential assay with electrical stimulation. It counts as cell-based. As to conditions: active against one or more sodium channels; assay and NaV subtype not specified for Table 3; read-out: IC50 Binned Activity Data. The source says:
Sodium channels are voltage-dependent proteins that can be activated by inducing membrane voltage changes by applying electric fields. […] The instrument comprises a microtiter plate handler, an optical system for exciting the coumarin dye while simultaneously recording the coumarin and oxonol emissions, a waveform generator, a current- or voltage-controlled amplifier, and a device for inserting electrodes in well. Under integrated computer control, this instrument passes user-programmed electrical stimulus protocols to cells within the wells of the microtiter plate.
24 hours before the assay on E-VIPR, HEK cells expressing human NaV subtype, like NaV 1.7, are seeded in 384-well poly-lysine coated plates at 15,000-20,000 cells per well. Other subtypes are performed in an analogous mode in a cell line expressing the NaV of interest. […] Cells are grown in vented cap flasks, in 90% humidity and 10% CO2, to 100% confluence. They are usually split by trypsinization 1:10 or 1:20, depending on scheduling needs, and grown for 2-3 days before the next split.
To make the solution Add volume of 10% Pluronic F127 stock equal to volumes of CC2-DMPE+DiSBAC6(3). The order of preparation is first mix Pluronic and CC2-DMPE, then add DiSBAC6(3) while vortexing, then add Bath1+β-Cyclodextrin.
1) Pre-spot compounds (in neat DMSO) into compound plates. […] Final compound plate volume will be 80 μL (80-fold intermediate dilution from 1 μL DMSO spot; 160-fold final dilution after transfer to cell plate).
2) Prepare Hexyl Dye Solution.
3) Prepare cell plates. On the day of the assay, medium is aspirated and cells are washed three times with 100 μL of Bath1 Solution, maintaining 25 μL residual volume in each well.
4) Dispense 25 μL per well of Hexyl Dye Solution into cell plates. Incubate for 20-35 minutes at room temp or ambient conditions.
5) Dispense 80 μL per well of Bath1 into compound plates. Acid Yellow-17 (1 mM) is added and Potassium Chloride can be altered from 4.5 to 20 mM depending on the NaV subtype and assay sensitivity.
6) Wash cell plates three times with 100 μL per well of Bath1, leaving 25 μL of residual volume. Then transfer 25 uL per well from Compound Plates to Cell Plates. Incubate for 20-35 minutes at room temp/ambient condition
7) Read Plate on E-VIPR. Use the current-controlled amplifier to deliver stimulation wave pulses for typically 9 seconds and a scan rate of 400 Hz. A pre-stimulus recording is performed for 0.5 seconds to obtain the un-stimulated intensities baseline. The stimulatory waveform is applied for 9 seconds followed by 0.5 seconds of post-stimulation recording to examine the relaxation to the resting state. The stimulatory waveform of the electrical stimulation is specific for each cell type and can vary the magnitude, duration and frequency of the applied current to provide an optimal assay signal.
Data are analyzed and reported as normalized ratios of background-subtracted emission intensities measured in the 460 nm and 580 nm channels. Background intensities are then subtracted from each assay channel. Background intensities are obtained by measuring the emission intensities during the same time periods from identically treated assay wells in which there are no cells. The response as a function of time is then reported as the ratios obtained using the following formula: […]
The data is further reduced by calculating the initial (Ri) and final (Rf) ratios. These are the average ratio values during part or all of the pre-stimulation period, and during sample points during the stimulation period. The response to the stimulus R=Rf/Ri is then calculated and reported as a function of time.
Control responses are obtained by performing assays in the presence of a compound with the desired properties (positive control), such as tetracaine, and in the absence of pharmacological agents (negative control). Responses to the negative (N) and positive (P) controls are calculated as above. The compound antagonist activity A is defined as: […]
Regarding `CCOCCN1CC(COC)OC2(CCN(C(=O)c3ccc(OC(C)C)c(C)c3)CC2)C1` (centres unmarked) [Compound 55], the IC50 was less than 2000 nM.
With `COCC#Cc1ccc(C(=O)N2CCC3(CC2)CN(CC(F)(F)F)CC(c2ccccc2)O3)cc1F` (centres unmarked) [Compound 56] the figure was 2000 to 5000 nM.
With `CC(C)(O)c1ccc(C(=O)N2CCC3(CC2)CN(CC(F)F)CC(c2ccccn2)O3)cc1F` (centres unmarked) [Compound 57] the figure was 2000 to 5000 nM.
With `COCC1CN(c2cccc(C(F)(F)F)c2)CC2(CCN(C(=O)c3ccc(C(C)(C)O)c(F)c3)CC2)O1` (centres unmarked) [Compound 58] the figure was less than 2000 nM.
With `O=C(c1ccc(C(O)C2CC2)cc1)N1CCC2(CC1)CN(CC(F)(F)F)CC(c1ccccc1)O2` (centres unmarked) [Compound 59], the IC50 is less than 2000 nM.
With `COC(C)(C)COc1ccc(C(=O)N2CCC3(CC2)CN(CC(F)(F)F)CC(c2ccccc2)O3)cc1` (centres unmarked) [Compound 60] the figure was less than 2000 nM; with `CCS(=O)(=O)c1ccc(C(=O)N2CCC3(CC2)CN(CC(F)(F)F)CC(c2ccccc2)O3)cc1C` (centres unmarked) [Compound 62], less than 2000 nM; with `Cc1ccc(C2CN(CC(F)F)CC3(CCN(C(=O)c4ccc(OC(C)C)c(C)c4)CC3)O2)cc1` (centres unmarked) [Compound 63], 2000 to 5000 nM.
In the case of `COCC1CN(Cc2cocn2)CC2(CCN(C(=O)c3ccc(OC(C)C)c(C)c3)CC2)O1` (centres unmarked) [Compound 64], the concentration for half-maximal inhibition (IC50) was more than 5000 nM.
With `Cc1cc(C(=O)N2CCC3(CC2)CN(CC(F)F)CC(c2ccccn2)O3)ccc1S(=O)(=O)C(C)C` (centres unmarked) [Compound 65] the figure was more than 5000 nM.
With `COCC1CN(Cc2c(F)cccc2F)CC2(CCN(C(=O)c3ccc(OC(C)C)c(C)c3)CC2)O1` (centres unmarked) [Compound 66] the figure was less than 2000 nM; with `CCC1CN(c2ncccn2)CC2(CCN(C(=O)c3ccc(C4(O)CCCCC4)cc3)CC2)O1` (centres unmarked) [Compound 67], less than 2000 nM.
With `Cc1cc(C(=O)N2CCC3(CC2)CN(CC#N)CC(c2ccccc2)O3)ccc1C(C)(C)O` (centres unmarked) [Compound 68] the figure was 2000 to 5000 nM; with `COCC1CN(Cc2cncnc2)CC2(CCN(C(=O)c3ccc(OC(C)C)c(C)c3)CC2)O1` (centres unmarked) [Compound 69], more than 5000 nM.
Consider `COCC1CN(c2ccc(C#N)cc2)CC2(CCN(C(=O)c3ccc(OC(C)C)c(C)c3)CC2)O1` (centres unmarked) [Compound 70], for which the IC50 was less than 2000 nM.
`COc1cc(F)cc(C(=O)N2CCC3(CC2)CN(CC(F)(F)F)CC(c2ccccc2)O3)c1` (centres unmarked) [Compound 71]: the IC50 was more than 5000 nM.
With `CCOc1cccc(C(=O)N2CCC3(CC2)CN(c2ncccn2)CC(COC)O3)c1` (centres unmarked) [Compound 72] the figure was more than 5000 nM.
With `COCC1CN(C(C)C)CC2(CCN(C(=O)c3ccc(OC(C)C)c(C)c3)CC2)O1` (centres unmarked) [Compound 73] the figure was less than 2000 nM.
As to `COCC1CN(c2cccc(OC)c2)CC2(CCN(C(=O)c3ccc(OC(C)C)c(C)c3)CC2)O1` (centres unmarked) [Compound 74], the concentration for half-maximal inhibition (IC50) was less than 2000 nM.
With `COCC1CN(c2ccc(C)cn2)CC2(CCN(C(=O)c3ccc(OC(C)C)c(C)c3)CC2)O1` (centres unmarked) [Compound 75] the figure was less than 2000 nM.
Take `CCN1CC(c2ncc(C)s2)OC2(CCN(C(=O)c3ccc(OC(C)C)c(OC)c3)CC2)C1` (centres unmarked) [Compound 76]: the IC50 lay within 2000 to 5000 nM.
With `CC(C)Oc1ccc(C(=O)N2CCC3(CC2)CN(CC(F)F)CC(c2ccccc2)O3)cc1F` (centres unmarked) [Compound 77] the figure was less than 2000 nM; with `Cc1cc(C(=O)N2CCC3(CC2)CN(CC(F)(F)F)CC(c2ccccc2)O3)ccc1N1CCOCC1` (centres unmarked) [Compound 78], less than 2000 nM.
With `COCC1CN(c2ncccc2OC)CC2(CCN(C(=O)c3ccc(OC(C)C)c(C)c3)CC2)O1` (centres unmarked) [Compound 79] the figure was less than 2000 nM.
In the case of `Cc1cccc(C2CN(CC(F)F)CC3(CCN(C(=O)c4ccc(C(C)(C)O)c(F)c4)CC3)O2)n1` (centres unmarked) [Compound 80], the IC50 is more than 5000 nM.
With `Cc1cc(C(=O)N2CCC3(CC2)CN(CC(F)F)CC(c2ccc(F)cc2)O3)ccc1OCCCO` (centres unmarked) [Compound 81] the figure was more than 5000 nM.
With `Cc1cc(C(=O)N2CCC3(CC2)CN(Cc2ccccc2)CC(CO)O3)ccc1OC(C)C` (centres unmarked) [Compound 82] the figure was 2000 to 5000 nM; with `Cc1cnc(C2CN(Cc3ccccc3)CC3(CCN(C(=O)c4ccc(OC(C)C)c(C)c4)CC3)O2)o1` (centres unmarked) [Compound 83], less than 2000 nM.
For `CC(C)Oc1ccc(C(=O)N2CCC3(CC2)CN(CC(F)F)CC(c2ccnn2C)O3)cc1F` (centres unmarked) [Compound 84], the IC50 is more than 5000 nM.
With `CC(C)Oc1ccc(C(=O)N2CCC3(CC2)CN(CC(F)F)CC(c2ccccc2)O3)cc1Cl` (centres unmarked) [Compound 86] the figure was less than 2000 nM; with `Cc1cc(C2CN(CC(F)(F)F)CC3(CCN(C(=O)c4ccc(OC(C)C)c(F)c4)CC3)O2)n[nH]1` (centres unmarked) [Compound 87], 2000 to 5000 nM; with `Cc1cc(C(=O)N2CCC3(CC2)CN(CC(F)F)CC(c2ncc(C(C)C)o2)O3)ccc1OC(C)C` (centres unmarked) [Compound 88], less than 2000 nM.
With `CCC#CCN1CC(COC)OC2(CCN(C(=O)c3ccc(OC(C)C)c(C)c3)CC2)C1` (centres unmarked) [Compound 89] the figure was less than 2000 nM; with `O=C(c1ccccc1OC(F)F)N1CCC2(CC1)CN(CC(F)(F)F)CC(c1ccccc1)O2` (centres unmarked) [Compound 90], more than 5000 nM.
With `CCC1CN(c2ncccn2)CC2(CCN(C(=O)c3ccc(C4(O)CCC4)c(C)c3)CC2)O1` (centres unmarked) [Compound 91] the figure was less than 2000 nM; with `Cc1cc(C(=O)N2CCC3(CC2)CN(c2ncccn2)CC(CO)O3)ccc1OC(C)C` (centres unmarked) [Compound 92], more than 5000 nM.
As for `COCC1CN(c2ncccn2)CC2(CCN(C(=O)c3ccc(C4(O)CCC4)c(C)c3)CC2)O1` (centres unmarked) [Compound 93], the 50% inhibitory concentration (IC50) was less than 2000 nM.
With `CC(C)Oc1ccc(C(=O)N2CCC3(CC2)CN(CC(F)(F)F)CC(c2ccccc2)O3)cc1F` (centres unmarked) [Compound 94] the figure was less than 2000 nM; with `COCC1CN(c2ccnc(C)c2)CC2(CCN(C(=O)c3ccc(OC(C)C)c(C)c3)CC2)O1` (centres unmarked) [Compound 95], more than 5000 nM; with `O=C(c1ccc(S(=O)(=O)C2CCOC2)cc1)N1CCC2(CC1)CN(CC(F)F)CC(c1ccc(F)cc1)O2` (centres unmarked) [Compound 96], more than 5000 nM.
With `CCC1CN(c2ccccn2)CC2(CCN(C(=O)c3ccc(C(C)(C)O)c(C)c3)CC2)O1` (centres unmarked) [Compound 97] the figure was less than 2000 nM.
For `Cc1cc(C(=O)N2CCC3(CC2)CN(CC(F)(F)F)CC(c2ccccc2)O3)ccc1C(C)(C)O` (centres unmarked) [Compound 98], the concentration for half-maximal inhibition (IC50) is less than 2000 nM.
With `O=C(c1ccc(S(=O)(=O)NC2CC2)cc1)N1CCC2(CC1)CN(CC(F)(F)F)CC(c1ccccc1)O2` (centres unmarked) [Compound 99] the figure was less than 2000 nM; with `COc1cc(C(=O)N2CCC3(CC2)CN(CC(F)F)C(c2ccccc2)CO3)ccc1OC(C)C` (centres unmarked) [Compound 100], less than 2000 nM; with `CCCCN1CC(COC)OC2(CCN(C(=O)c3ccc(OC(C)C)c(C)c3)CC2)C1` (centres unmarked) [Compound 101], less than 2000 nM.
With `COCC1CN(Cc2ccccc2F)CC2(CCN(C(=O)c3ccc(OC(C)C)c(C)c3)CC2)O1` (centres unmarked) [Compound 102] the figure was less than 2000 nM.
In the case of `CCC1CN(c2ccccn2)CC2(CCN(C(=O)c3ccc(C4(O)CCCC4)c(C)c3)CC2)O1` (centres unmarked) [Compound 103], the IC50 was less than 2000 nM.
With `COc1cc(C(=O)N2CCC3(CC2)CN(CC(F)(F)F)C(c2ccccc2)CO3)ccc1OC(C)C` (centres unmarked) [Compound 104] the figure was less than 2000 nM; with `CC(C)(O)c1ccc(C(=O)N2CCC3(CC2)CN(CC(F)(F)F)CC(c2ccccc2)O3)cc1` (centres unmarked) [Compound 105], less than 2000 nM; with `Cc1nc(C(=O)N2CCC3(CC2)CN(CC(F)(F)F)CC(c2ccccc2)O3)ccc1C#N` (centres unmarked) [Compound 106], more than 5000 nM.

By IC50 is commonly meant the concentration needed to halve the response being measured.
